Test results published in patent publication US11905288B1, “Pyrido[3″,4″:4′, 5′]pyrrolo[3′,2′:4,5]imidazole[1,2-c]pyrimidine compounds as CK2 inhibitors” (KING FAISAL UNIVERSITY, priority 2023, dated 2024).

Legend:
[1] = system: H1299 (lung); assay: In vitro cytotoxic activity assay (MTT), H1299; type: cell-based; settings: Homo sapiens, NCI-H1299; H1299 (lung) cells, exposed for 96 hours; read-out: IC50, concentration eliciting a 50% inhibition of cell proliferation
Method: (§1) Compounds 1-15 were screened for their in vitro cytotoxic activity utilizing a 3-(4,5-dimethyl-thiazol-2-yl)-2,5-diphenyltetrazolium bromide (MTT) assay against selected cancer human cell lines consisting of PC3 (prostate), HCT116 (colon), A375 (melanoma), H1299 (lung), MIAPaCa-2 (pancreas), HL60 (leukemia), MCF7 (breast), MDA-MB-231 (breast) (T. Mosmann, J. Immunol. Meth., 1983, 65, 55-63). The cells were cultured at 37° C. in RMPI1640 medium supplemented with 10% fetal bovine serum, 50 IU/mL penicillin, and 50 μg/mL streptomycin in a 5% CO2 incubator. All cells were sub-cultured 3 times/week by trypsinisation. Viable cells were seeded and allowed to adhere for 12 h before a test drug was added in 96-well plates at an initial density of 1.0×10^5 cells/mL. Tumour cell lines were separately exposed to various concentrations of the tested compounds followed by incubation at a temperature of 37° C. during 96 h inside a medium of fresh RMPI 1640. Cells were subsequently incubated at 37° C. using MIT at 0.5 mg/mL during 4 h. After removal of supernatant, formazan crystals were dissolved in isopropanol and the optical density was measured at 570 nm. CX-4945 was used as a positive control.

[2] = system: MCF7 (breast); assay: In vitro cytotoxic activity assay (MTT), MCF7; type: cell-based; settings: Homo sapiens; MCF7 (breast) cells, exposed for 96 hours; read-out: IC50, concentration eliciting a 50% inhibition of cell proliferation
Method: as §1

[3] = target: T1, recombinant human CK2 (RRββ-holoenzyme) (Homo sapiens, UniProt P68400); assay: CK2 Kinase Assay (33P-ATP, filter plate); type: biochemical; settings: final ATP concentration 15 μM, 10 min at 30° C.; read-out: protein kinase CK2 activity IC50
T1 construct: purchased Millipore
T1 sequence (P68400 whole entry): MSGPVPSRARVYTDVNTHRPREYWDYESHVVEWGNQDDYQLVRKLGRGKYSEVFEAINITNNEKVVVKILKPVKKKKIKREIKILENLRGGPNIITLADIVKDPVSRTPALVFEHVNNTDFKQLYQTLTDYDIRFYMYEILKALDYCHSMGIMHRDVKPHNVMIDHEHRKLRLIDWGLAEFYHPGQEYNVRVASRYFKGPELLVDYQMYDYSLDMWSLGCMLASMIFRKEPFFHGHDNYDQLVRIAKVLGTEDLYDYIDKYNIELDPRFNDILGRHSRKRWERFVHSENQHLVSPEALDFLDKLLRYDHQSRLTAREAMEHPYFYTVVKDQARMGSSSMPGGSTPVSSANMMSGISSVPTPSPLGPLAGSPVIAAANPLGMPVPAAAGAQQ
T1 sequence (P67870 whole entry partner): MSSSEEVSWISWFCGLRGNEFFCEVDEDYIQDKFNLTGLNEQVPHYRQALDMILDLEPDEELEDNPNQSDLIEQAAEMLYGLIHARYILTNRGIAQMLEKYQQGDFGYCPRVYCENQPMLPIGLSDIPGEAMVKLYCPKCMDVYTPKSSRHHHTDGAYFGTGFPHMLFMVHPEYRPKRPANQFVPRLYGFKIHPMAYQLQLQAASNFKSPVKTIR
Method: CK2 Kinase Assay was conducted using the protocol as described in Pierre F. et al; J. Med. Chem. 2011, 54, 635-654. The tested compounds in aqueous solution were added at a volume of 10 μL to a reaction mixture comprising 10 μL of assay dilution buffer (ADB; 20 mM MOPS, pH 7.2, 25 mM β-glycerol phosphate, 5 mM EGTA, 1 mM sodium orthovanadate, and 1 mM dithiothreitol), 10 μL of substrate peptide (RRRDDDSDDD, dissolved in ADB at a concentration of 1 mM), 10 μL of recombinant human CK2 (RRββ-holoenzyme, 25 ng dissolved in ADB; Millipore). Reactions were initiated by the addition of 10 μL of ATP solution (90% 75 mMMgCl2, 75 μM ATP (final ATP concentration: 15 μM) dissolved in ADB; 10% [γ-33P] ATP (stock 1 mCi/100 μL; 3000 Ci/mmol (Perkin-Elmer) and maintained for 10 min at 30° C. The reactions were quenched with 100 μL of 0.75% phosphoric acid and then transferred to and filtered through a phosphor cellulose filter plate (Millipore). After washing each well five times with 0.75% phosphoric acid, the plate was dried under vacuum for 5 min and, following the addition of 15 μL of scintillation fluid to each well, the residual radioactivity was measured using a Wallac luminescence counter. The IC50 values were derived from eight concentrations of test inhibitors.

[4] = system: HL60 (leukemia); assay: In vitro cytotoxic activity assay (MTT), HL60; type: cell-based; settings: Homo sapiens, HL-60; HL60 (leukemia) cells, exposed for 96 hours; read-out: IC50, concentration eliciting a 50% inhibition of cell proliferation
Method: as §1

[5] = system: A375 (melanoma); assay: In vitro cytotoxic activity assay (MTT), A375; type: cell-based; settings: Homo sapiens, A-375; A375 (melanoma) cells, exposed for 96 hours; read-out: IC50, concentration eliciting a 50% inhibition of cell proliferation
Method: as §1

[6] = system: MIAPaCa-2 (pancreas); assay: In vitro cytotoxic activity assay (MTT), MIAPaCa-2; type: cell-based; settings: Homo sapiens, MIA PaCa-2; MIAPaCa-2 (pancreas) cells, exposed for 96 hours; read-out: IC50, concentration eliciting a 50% inhibition of cell proliferation
Method: as §1

[7] = system: HCT116 (colon); assay: In vitro cytotoxic activity assay (MTT), HCT116; type: cell-based; settings: Homo sapiens, HCT-116; HCT116 (colon) cells, exposed for 96 hours; read-out: IC50, concentration eliciting a 50% inhibition of cell proliferation
Method: as §1

[8] = system: MDA-MB-231 (breast); assay: In vitro cytotoxic activity assay (MTT), MDA-MB-231; type: cell-based; settings: Homo sapiens; MDA-MB-231 (breast) cells, exposed for 96 hours; read-out: IC50, concentration eliciting a 50% inhibition of cell proliferation
Method: as §1

[9] = system: PC3 (prostate); assay: In vitro cytotoxic activity assay (MTT), PC3; type: cell-based; settings: Homo sapiens, Prostate cell; PC3 (prostate) cells, exposed for 96 hours; read-out: IC50, concentration eliciting a 50% inhibition of cell proliferation
Method: as §1

Clc1cccc(-n2c3ccncc3c3nc4ccncn4c32)c1 [Compound 1, 5-(3-chlorophenyl)-5H-pyrido[3″,4″:4′,5′]pyrrolo[3′,2′:4,5]imidazo[1,2-c]pyrimidine]
IC50 [1]: 2.6 µM
IC50 [2]: 4.1 µM
IC50 [3]: 0.056 µM
IC50 [4]: 2.8 µM
IC50 [5]: 3.7 µM
IC50 [6]: 0.9 µM
IC50 [7]: 2.1 µM
IC50 [8]: 2.4 µM
IC50 [9]: 1.3 µM
